Measurements as given in ChEMBL document CHEMBL3745605, “Aspernigrins with anti-HIV-1 activities from the marine-derived fungus Aspergillus niger SCSIO Jcsw6F30” (Bioorg Med Chem Lett, 2016).
Activity calls are given as the source filed them. The rule behind the calls is not given here. Bridge positions count the residues as written; N and C are the ends. Square brackets hold non-standard residues; d marks the D form. Peptide text beside a SMILES is read from it.

Tests used:
[1] = tested on: Human immunodeficiency virus 1; experiment: Antiviral activity against HIV-1 SF162 infected in TZM-bl cells after 2 days by luciferase reporter gene assay; format: functional, cell-based; conditions: Human immunodeficiency virus 1, SF162 ISOLATE, 48 h
[2] = tested on: Human immunodeficiency virus 1; experiment: Antiviral activity against HIV-1 SF162 infected in TZM-bl cells at 50 uM after 2 days by luciferase reporter gene assay; format: functional, cell-based; conditions: SF162 ISOLATE
[3] = Cytotoxicity against human TZM-bl cells after 2 days by colorimetric XTT assay; format: cell-based
[4] = Selectivity index, ratio of CC50 for human TZM-bl cells to IC50 for HIV-1 SF162 infected in TZM-bl cells; format: functional

SMILES | IC50 [1] | Activity [2] | CC50 at 48 h [3] | Ratio CC50/IC50 [4]
COC(=O)[C@@H](C)CC(=O)NC(=O)c1cn([C@@H](Cc2ccccc2)c2cc(OC)cc(=O)o2)c(Cc2ccccc2)cc1=O | – | inactive | – | –
COc1cc(O)cc2cc3c(c(O)c12)C(=O)CC(C)(O)O3 (stereo not drawn) | – | inactive | – | –
COc1cc(O)c2c(O)c3c(=O)cc(C)oc3cc2c1 [RUBROFUSARIN] | 56.2 µM | – | 1020 µM | 18.1
COc1cc(OC)c2c(O)c3c(=O)cc(C)oc3cc2c1 | – | inactive | – | –
COc1cc([C@H](Cc2ccccc2)n2cc(C(N)=O)c(=O)cc2Cc2ccccc2)oc(=O)c1 | – | inactive | – | –

More lines, main results first:

IC50 [1] | SMILES | Activity [2] | CC50 at 48 h [3] | Ratio CC50/IC50 [4]
1.8 µM | COc1ccc(S(=O)(=O)O)cc1/N=N/c1c(S(=O)(=O)O)cc2cc(Nc3nc(Nc4ccccc4)nc(Nc4cc(C)c(/N=N/c5cc(S(=O)(=O)O)cc6cc(S(=O)(=O)O)cc(O)c56)cc4OC)n3)ccc2c1O | – | – | –
1.4 µM | CC(C)C[C@@H]1NC(=O)[C@@H](CC(C)C)NC(=O)[C@H](C(C)C)NC(=O)[C@H]2CSSC[C@@H](NC1=O)C(=O)N2 (cyclo(L[dC][dC]V[dL]); disulfide 2-3) | – | 16.4 µM | 11.4
0.8 µM | Nc1nc(NC2CC2)c2ncn([C@H]3C=C[C@@H](CO)C3)c2n1 [ABACAVIR] | – | – | –
4.7 µM | COc1cc([C@H](Cc2ccccc2)n2cc(C(=O)NC(=O)C[C@H](C)C(=O)O)c(=O)cc2Cc2ccccc2)oc(=O)c1 | – | 35 µM | 7.5
83.2 µM | NC(=O)c1c[nH]c(Cc2ccccc2)cc1=O | – | 583 µM | 7
